By LD50 is commonly meant the dose expected to kill half of the subjects tested. A low value points to greater toxicity.

Molecules are shown by their SMILES.

We go through seven molecules from patent US3960949A, “1,2-Biguanides” (Schering Aktiengesellschaft, priority 1971, dated 1976).

Assay in one data set: not given
The conditions noted are these: in vivo; cited from earlier work.
On to `CCCCNC(=N)NC(=N)N` [1-Butylbiguanide, 1-butylbiguanide], for which the gastrointestinal compatibility result is on record as “gastrointestinal incompatibility”.

Regarding `[H]/N=C(/N)N/C(=N/[H])NCCc1ccccc1` [Phenformin, 1-β-phenethylbiguanide], the gastrointestinal compatibility result is “gastrointestinal incompatibility”.

The nature of the next data set: in vivo. Particulars: mouse, po. Here is the method:
Five days after administration of the substance, the number of surviving animals was determined. […] The LD50 values were in each case based on the free base.
On to `CCN=C(NC(=N)N)N(CC)CC.O=[N+]([O-])O` [1,1,2-Triethylbiguanide, 1,1,2-Triethylbiguanide Nitrate], for which the LD50 at 120 h is greater than 2000 mg/kg.

Take `Br.CC(C)N=C(NC(=N)N)NC(C)C` [1,2-Diisopropylbiguanide, 1,2-Diisopropylbiguanide Hydrobromide]: the LD50 at 120 h was greater than 2000 mg/kg.

`CCCCN/C(=N\CC)NC(=N)N` [1-Ethyl-2-n-butylbiguanide] had an LD50 at 120 h greater than 2000 mg/kg.

On to `CCCN=C(NC)NC(=N)N.Cl` [1-Methyl-2-n-propylbiguanide, 1-Methyl-2-n-propylbiguanide Hydrochloride], for which the LD50 at 120 h is greater than 2000 mg/kg.

Regarding `CN/C(=N\CCc1ccccc1)NC(=N)N` [1-Methyl-2-β-phenethylbiguanide, 2-Methyl-1-β-phenethylbiguanide Nitrate], the LD50 at 120 h amounted to 2830 mg/kg.
